Test results reported in patent US11225507B2, “Conformation switchable antimicrobial peptides and methods of using the same” (priority 2017, dated 2022).

What was measured:
[1] = tested on: clinical isolated H. pylori stains J99, J99A-7, J99A-9, J99A-11, J99C-8, J99D-1; experiment: Growth (OD600) of clinical isolated H. pylori strains with antibiotics; assay type: cell-based, Helicobacter pylori; settings: pH 7.4, 10% CO2, 37° C.
Experimental: FIG. 8. (A) The survival rate of H. pylori after incubation with amoxicillin (273.7 μM) and clarithromycin (133.7 μM) under pH 7.4 or 3.0 for 1 h. […] Concentrations of omeprazole, amoxicillin, and clarithromycin in OAC1 are 20.0 μM, 6.8 μM, and 1.9 μM, respectively; in OAC2 are 40.0 μM, 13.6 μM, and 3.8 μM, respectively; in OAC3 are 80.0 μM, 27.2 μM, and 7.6 μM, respectively. (C) The antibacterial activity of omeprazole (O) and a combination of amoxicillin and clarithromycin (AC) against SS1 at pH 3.0. O1, O2, O3 represents the concentration of omeprazole at 20.0 μM, 40.0 μM, and 80.0 μM, respectively. AC1, AC2, AC3 represents the concentration of amoxicillin and clarithromycin at 6.8 μM and 1.9 μM, 13.6 μM and 3.8 μM, 27.2 μM and 7.6 μM, respectively. The antibiotics were incubated with H. pylori strains for 1 h. The antibacterial activity of amoxicillin (D) and clarithromycin (E) against clinical isolated H. pylori stains, J99, J99A-7, J99A-9, J99A-11, J99C-8, J99D-1. The bacteria were incubated with antibiotics under pH 7.4 in the 10% CO2 incubator (37° C.), and the optical density at 600 nm (OD600) of bacteria were analyzed to determine the growth of bacteria. […] (G) The antibacterial activity of omeprazole (0) and a combination of amoxicillin and clarithromycin (AC) against J99D-1 under pH 3.0.

H. pylori SS1 [2] = experiment: MIC of antibiotics against SS1; assay type: cell-based; settings: Helicobacter pylori
H. pylori SS1 [3] = experiment: H. pylori killing kinetics at various pHs (CFU counting, 1 h); assay type: cell-based, Helicobacter pylori
Experimental: H. pylori killing kinetics at various pHs. The killing kinetics of polypeptides were measured against H. pylori by counting the colony forming units (CFU) of alive bacteria with agar plating. The polypeptides at various concentrations were dissolved in the Tris-HC buffer at various pHs (pH 7.4, 4.0, 3.0). H. pylori were then collected and dispersed in the BB medium supplied with fresh urea (10 mM) and 10% FBS at different pHs (pH 7.4, 4.0, 3.0). The optical density at 600 nm of the bacteria were fixed at 0.1. The bacteria were then incubated with the polypeptides solution at corresponding pH in the incubator supplied with 10% CO2 at 37° C. Samples were taken for a series of ten-fold dilutions, and plated out in BB agar plates with 10% FBS and vancomycin (pH 7.4) after 1 h incubation. The plates were incubated for 72 h in the incubator and the bacteria were counted for CFU. Bacteria incubated with Tris-HCl buffer only at corresponding pH were served as 100% survival. Survival rate (%)=CFU of bacteria treated with polypeptides/CFU of bacteria treated with buffer×100%. The killing kinetics of antibiotics (OAC, omeprazole, amoxicillin, clarithromycin) against H. pylori were determined with a similar procedure. The antibiotics at various concentrations were dissolved in the Tris-HCl buffer at pH 7.4, or 3.0, and were then incubated with H. pylori in BB medium supplied with fresh urea (10 mM) and 10% FBS at corresponding pH in the incubator. After 1 h incubation, the bacteria were collected by centrifuge at 10,000 rcf for 5 min and washed with fresh BB medium. Samples were then taken for a series of ten-fold dilutions, and plated out in BB agar plates with 10% FBS and vancomycin. The plates were incubated for 72 h in the incubator and the bacteria were counted for CFU.

H. pylori SS1 [4] = experiment: SEM analysis of bacterial morphology; assay type: cell-based, Helicobacter pylori; settings: 30 min
Experimental: SEM analysis. SS1 bacterial cells grown in BB with the supplement of 10% FBS under pH 7.4 or 4.0 with or without polypeptides (2.2 μM) treatment were performed using a similar protocol as killing kinetics measurements but with a 30 min incubation time. All the samples were collected into a microfuge tube and pelleted at 4000 rpm for 5 min, and then washed twice with phosphate-buffered saline. Subsequently, bacteria were fixed with paraformaldehyde solution (4%) for 1 h before proceeding, followed by washing with DI water. Dehydration was performed with a series of graded ethanol solution (10%, 25%, 50%, 75%, 95%, and 100%). The dehydrated samples were dried under vacuum overnight before being mounted on carbon tape and coated with gold-platinum for imaging using a Hitachi S-4700 High Solution SEM (Japan).

[5] = Circular dichroism (CD) secondary structure of polypeptides at different pH; assay type: physicochemical; settings: pH 7.4 or 3.0
Experimental: The secondary structure of the polypeptides at different pH value was then investigated by circular dichroism (CD). […] Distortion of helical conformation was noted when the pH was adjusted back to neutral (FIG. 1C).
The MALLS detector was calibrated using pure toluene and can be used for the determination of the absolute molecular weights (MWs). The MWs of polymers were determined based on the dn/dc value of each polymer sample calculated offline by using the internal calibration system processed by the ASTRA V software (version 5.1.7.3, Wyatt Technology, Santa Barbara, Calif., USA). Circular dichroism (CD) measurements were carried out on a JASCO J-815 CD spectrometer. The polymer samples were prepared at concentrations of 4.4 μM. The solution was placed in a quartz cell with a path length of 0.10 cm. The zeta-potential of polypeptides was evaluated by Malvern Zetasizer. Infrared spectra were recorded on a Perkin Elmer 100 serial FTIR spectrophotometer calibrated with polystyrene film. Lyophilization was performed on a FreeZonelyophilizer (Labconco, Kansas City, Mo., USA). UV light was generated from an OmiCure S1000 UV lamp (EXFO, Mississauga, Canada).

[6] = Liposome dye leakage assay (ANTS/DPX efflux)
Experimental: Liposome dye leakage assay. ANTS (12.5 mM) and DPX (45 mM) were dissolved in Tris buffer (pH=7.4). To a clean round-bottom flask, appropriate volumes of lipid stocks were added to make up 1 mL of CHCl3 (3:1 POPE (1-palmitoyl-2-oleoyl-sn-glycero-3-phosphoethanolamine)/POPG (1-palmitoyl-2-oleoyl-sn-glycero-3-phospho-(1′-rac-glycerol) (sodium salt)) vesicles, POPE (130 μL, 25 mg/mL CHCl3) and POPG (115 μL, 10 mg/mL CHCl3) were used). The solvent was removed by a stream of nitrogen gas to obtain a thin lipid film, which was then hydrated by 1 mL of ANTS/DPX solution. The mixture was left to hydrate for 1 h, after which it was subjected to 10 freeze-thaw cycles (using dry ice/acetone to freeze and warm water to thaw). The suspension was extruded 20 times through a polycarbonate membrane with 400 nm pore diameter. The excess dye was removed using Sephadex G-50 column as the eluent. The dye-filled vesicle fractions were diluted 200 times with Tris buffer. This suspension (90 μL) was subsequently mixed with polypeptide stock solutions (10 μL) at various pH (pH 7.4 or 4.0) on a 96-well black microplate (Greiner, flat bottom). Tris buffer (10 μL, pH 7.4 or 4.0) and Triton-X (0.1% v/v, 10 μL, pH 7.4 or 4.0) were employed as the negative and positive controls at corresponding pH, respectively. After 30 min, the fluorescence intensity in each well was recorded using the microplate reader with excitation and emission wavelengths of 380 and 520 nm, respectively. The percentage of leaked […] dye in each well was determined as follows: leakage (%)=[(F−F0)/(FTX−F0)]×100%, where F is the fluorescence intensity recorded in the well, F0 is the intensity in the negative control well, and FTX is the intensity in the positive control well.

H. pylori SS1 [7] = experiment: Anti-H. pylori efficacy in vivo (infected C57BL/6J mice); parameters: species or system Helicobacter pylori; settings: oral gavage once daily for 3 d, 2.6 μmol/kg
Experimental: Anti-H. pylori efficacy in vivo. […] For triple therapy, mice were first administered omeprazole (a proton pump inhibitor) through oral gavage at a dose of 400 μmol/kg, followed by a lag time of 30 min before administration of amoxicillin (68.0 μmol/kg) and clarithromycin (19.1 μmol/kg). PL2 and PDL2 in 5% (vol/vol) DMSO (both at 2.6 μmol/kg) were administered through oral gavage once daily for a consecutive 3 d. Water solution with 5% DMSO was served as negative control group. Forty-eight hours after the last administration, mice were killed and the stomach was removed from the abdominal cavity. The stomach was cut along the greater curvature, and the gastric content was removed and rinsed with PBS. The stomach sections were used for assessment of bacterial colonization. For bacterial colonization, a gastric tissue section was suspended in 1 mL PBS and homogenized for H. pylori recovery. The homogenate was serially diluted and spotted onto Columbia agar plate containing vancomycin (20 μg/mL), amphotericin (2 μg/mL), bacitracin (30 μg/mL) and nalidixic acid (10 μg/mL). The plates were then incubated at 37° C. under microaerobic conditions for 5 d, and bacterial colonies were enumerated and adjusted for dilutions.

| Molecule | susceptibility of J99A-7, J99A-11, J99C-8 and J99D-1 (growth, OD600) [1] | MIC (H. pylori SS1 [2]) | bactericidal activity against SS1 (H. pylori SS1 [3]; pH 3.0, 1 h incubation) | bacteria killed (H. pylori SS1 [3]; pH 7.4, 1 h incubation, 133.7 μM) | bacterial membrane/morphology by SEM (H. pylori SS1 [4]; pH 4.0, 2.2 μM) | bacterial membrane/morphology by SEM (H. pylori SS1 [4]; pH 7.4, 2.2 μM) | secondary structure (CD), dependence on pH [5] | dye leakage from anionic liposomes ([6]; pH 4.0) | dye leakage from anionic liposomes ([6]; pH 7.4) | bactericidal activity against SS1 (H. pylori SS1 [3]; pH 7.4, 1 h incubation) | decrease of bacterial burden in the stomach as compared with the control group (H. pylori SS1 [7]) | bacteria killed (H. pylori SS1 [3]; pH 7.4, 1 h incubation, 273.7 μM) |
| --- | --- | --- | --- | --- | --- | --- | --- | --- | --- | --- | --- | --- |
| CC[C@H]1OC(=O)[C@H](C)[C@@H](O[C@H]2C[C@@](C)(OC)[C@@H](O)[C@H](C)O2)[C@H](C)[C@@H](O[C@@H]2O[C@H](C)C[C@H](N(C)C)[C@H]2O)[C@](C)(OC)C[C@@H](C)C(=O)[C@H](C)[C@@H](O)[C@]1(C)O [clarithromycin, reference compound] | resistant | 0.07 µM | no bactericidal activity | ~60% | – | – | – | – | – | – | – | – |
| (PHLG-MHH)20 [PL1] | – | – | killed H. pylori SS1 | – | membrane disruption | membrane disruption | stable helical conformation independent of pH change | notable dye leakage | notable dye leakage | killed H. pylori SS1 | – | – |
| (PDLGA)20-r-(PHDLG-MHH)25 [PDL2] | – | – | unappreciable bactericidal activity | – | did not affect the morphology of bacteria | did not affect the morphology of bacteria | pH-independent non-helical conformation | unappreciable dye leakage | unappreciable dye leakage | unappreciable bactericidal activity | no significant decrease of bacterial burden | – |
| CC1(C)S[C@@H]2[C@H](NC(=O)[C@H](N)c3ccc(O)cc3)C(=O)N2[C@H]1C(=O)O [amoxicillin, reference compound] | – | 0.13 µM | no bactericidal activity | – | – | – | – | – | – | – | – | ~40% |
